Measurements taken from patent publication US20040127361A1 (priority 2003, published 2004).

Key:
Format in all cases: in vivo
[1] = test system: Phytophthora infestans; conditions: tomato seedlings sprayed to run-off, inoculated following day with spore suspension, saturated atmosphere 20° C. 24 hours then growth chamber 5 days; test concentration not stated
[2] = test system: Puccinia recondita; test: Test B: wheat leaf rust, preventive spray on wheat seedlings; conditions: wheat seedlings sprayed to run-off, inoculated following day with spore suspension, saturated atmosphere 20° C. 24 hours then growth chamber 6 days; test concentration not stated
Text: (§1) General protocol for preparing test suspensions: Test compounds are first dissolved in acetone in an amount equal to 3% of the final volume and then suspended at the desired concentration (in ppm) in acetone and purified water (50/50 mix) containing 250 ppm of the surfactant Trem® 014 (polyhydric alcohol esters). The resulting test suspensions are then used in the following tests. Spraying a 200 ppm test suspension to the point of run-off on the test plants is the equivalent of a rate of 500 g/ha
The test suspension was sprayed to the point of run-off on wheat seedlings. The following day the seedlings were inoculated with a spore suspension of Puccinia recondita (the causal agent of wheat leaf rust) and incubated in a saturated atmosphere at 20° C. for 24 hours, and then moved to a growth chamber at 20° C. for 6 days, after which disease ratings were made.
(§2) Results for Tests A-D are given in Table A. In the table, a rating of 100 indicates 100% disease control and a rating of 0 indicates no disease control (relative to the controls). A dash (-) indicates no test results. ND indicates disease control not determined due to phytotoxicity.

[3] = test system: Erysiphe graminis f sp. tritici; test: Test A: wheat powdery mildew, preventive spray on wheat seedlings; conditions: wheat seedlings sprayed to run-off, inoculated following day with spore dust, 20° C. for 7 days; test concentration not stated
Text: as §1
The test suspension was sprayed to the point of run-off on wheat seedlings. The following day the seedlings were inoculated with a spore dust of Erysiphe graminis f sp. tritici, (the causal agent of wheat powdery mildew) and incubated in a growth chamber at 20° C. for 7 days, after which disease ratings were made.
as §2

SMILES	Test C disease control rating (100 = 100% disease control, 0 = no disease control relative to the controls) [1] [%]	Test B disease control rating (100 = 100% disease control, 0 = no disease control relative to the controls) [2] [%]	Test A disease control rating (100 = 100% disease control, 0 = no disease control relative to the controls) [3] [%]
Cc1cnc2c(c1)CCCC2NC(=O)c1c(Cl)cccc1Cl (stereo not drawn) [Compound A1, 2,6-dichloro-N-(5,6,7,8-tetrahydro-3-methyl-8-quinolinyl)benzamide]	100	84	0
Cc1cnc2c(c1)CCCC2NC(=O)c1ccc(Br)cc1 (stereo not drawn) [Compound A2]	5	18	0
Cc1cnc2c(c1)CCCC2NC(=O)c1ccccc1C(F)(F)F (stereo not drawn) [Compound A3]	47	41	0
Cc1cnc2c(c1)CCCC2NC(=O)c1c(F)cccc1F (stereo not drawn) [Compound A4]	90	0	0
Cc1cnc2c(c1)CCCC2NC(=O)c1ccccc1Cl (stereo not drawn) [Compound A5]	46	55	0
Cc1cnc2c(c1)CCCC2NC(=O)c1c(Cl)cc(Cl)cc1Cl (stereo not drawn) [Compound A6]	82	9	0
Cc1cnc2c(c1)CCCC2NC(=O)c1ccccc1C (stereo not drawn) [Compound A7]	75	45	0
Cc1cnc2c(c1)CCCC2NC(=O)c1c(F)ccc(F)c1F (stereo not drawn) [Compound A8, 2,3,6-trifluoro-N-(5,6,7,8-tetrahydro-3-methyl-8-quinolinyl)benzamide]	100	55	0
Cc1cnc2c(c1)CCCC2NC(=O)c1c(F)cccc1Cl (stereo not drawn) [Compound A9]	97	38	0
Cc1cnc2c(c1)CCCC2NC(=O)c1cccnc1Nc1cccc(C(F)(F)F)c1 (stereo not drawn) [Compound B1]	16	19	0
CSc1ncccc1C(=O)NC1CCCc2cc(C)cnc21 (stereo not drawn) [Compound B3]	56	23	0
Cc1cnc2c(c1)CCCC2NC(=O)c1ccc(Cl)nc1 (stereo not drawn) [Compound B4]	32	9	0
Cc1cnc2c(c1)CCCC2NC(=O)c1cccnc1O (stereo not drawn) [Compound B8]	47	19	0
Cc1cnc2c(c1)CCCC2NC(=O)c1ccnc(Cl)c1 (stereo not drawn) [Compound C1]	84	55	0
COc1cc(C(=O)NC2CCCc3cc(C)cnc32)cc(Cl)n1 (stereo not drawn) [Compound C2, 2-chloro-6-methoxy-N-(5,6,7,8-tetrahydro-3-methyl-8-quinolinyl)4-pyridinecarboxamide]	18	28	95
